Tests used:
[1] = Elimination of Compound-1 in study subjects
[2] = tested on: opioid dependent, opioid experienced subject; test: Compound-1 after REMI challenge in an opioid dependent, opioid experienced subject; settings: 10 mg on Day 2, one opioid dependent subject

NC(=O)c1ccc2c(c1O)[C@]13CCN(CC4CC4)[C@H](C2)[C@]1(O)CCC(=O)C3 [Compound-1]
fraction of Compound-1 eliminated ([1]; by 4 days post-dose): more than 99%
half-life ([1]; human, in vivo, 20 mg): 7 h
time to severe drug withdrawal post-dosing [2]: 2 min
